Positions count from the first letter of the chain named. The source made the active and inactive calls. The rule behind the calls is not given here.
Tests used:
[1] = biological target: T1, Short transient receptor potential channel 5 (Homo sapiens) (UniProt Q9UL62); assay: Induction of S-nitrosylation of TRPC5 in HEK cells assessed as increase in Ca2+ level from extracellular space at 300 uM; assay type: cell-based; settings: HEK293
T1 sequence (whole entry): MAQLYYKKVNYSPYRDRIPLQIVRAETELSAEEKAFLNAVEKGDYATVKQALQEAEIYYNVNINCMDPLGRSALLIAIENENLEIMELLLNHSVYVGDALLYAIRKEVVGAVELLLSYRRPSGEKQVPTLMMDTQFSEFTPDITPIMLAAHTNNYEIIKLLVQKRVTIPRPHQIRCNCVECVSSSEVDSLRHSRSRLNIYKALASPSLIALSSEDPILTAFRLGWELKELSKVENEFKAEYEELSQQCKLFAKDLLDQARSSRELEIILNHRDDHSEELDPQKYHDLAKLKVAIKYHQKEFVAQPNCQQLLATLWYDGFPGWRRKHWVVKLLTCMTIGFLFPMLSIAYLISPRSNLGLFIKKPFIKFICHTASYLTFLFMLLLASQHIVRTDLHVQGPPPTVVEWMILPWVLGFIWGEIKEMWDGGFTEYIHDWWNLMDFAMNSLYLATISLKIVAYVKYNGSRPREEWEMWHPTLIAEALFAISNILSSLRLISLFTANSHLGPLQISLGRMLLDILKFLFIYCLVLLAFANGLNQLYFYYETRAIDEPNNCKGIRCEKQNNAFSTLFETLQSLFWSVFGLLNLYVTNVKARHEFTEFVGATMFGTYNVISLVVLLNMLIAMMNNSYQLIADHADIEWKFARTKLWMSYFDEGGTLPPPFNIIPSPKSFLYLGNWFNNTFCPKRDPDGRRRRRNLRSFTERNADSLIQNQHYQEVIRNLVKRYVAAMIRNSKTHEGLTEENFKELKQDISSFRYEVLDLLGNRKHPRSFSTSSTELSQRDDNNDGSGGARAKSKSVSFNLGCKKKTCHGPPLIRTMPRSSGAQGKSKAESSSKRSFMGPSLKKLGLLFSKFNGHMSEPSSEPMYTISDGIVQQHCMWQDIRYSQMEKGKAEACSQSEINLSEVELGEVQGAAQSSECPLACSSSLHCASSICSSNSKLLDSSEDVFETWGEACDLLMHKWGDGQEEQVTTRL

[2] = biological target: T1, Short transient receptor potential channel 5 (Homo sapiens); assay: Induction of S-nitrosylation of TRPC5 in HEK cells assessed as increase in Ca2+ level from extracellular space at 1 mM in presence of ascorbic acid; assay type: cell-based; settings: HEK293
[3] = biological target: T1, Short transient receptor potential channel 5 (Homo sapiens); assay: Induction of S-nitrosylation of TRPC5 in HEK cells assessed as increase in Ca2+ level from extracellular space at 1 mM in presence of dithiothreitol; assay type: cell-based; settings: HEK293
[4] = biological target: Transient receptor potential cation channel subfamily V member 4 (Homo sapiens) (UniProt Q9HBA0); assay: Activation of TRPV4 in HEK cells assessed as increase in Ca2+ level from extracellular space at 300 uM; assay type: cell-based; settings: HEK293
Sequence of Transient receptor potential cation channel subfamily V member 4 (Homo sapiens) (Q9HBA0 whole entry): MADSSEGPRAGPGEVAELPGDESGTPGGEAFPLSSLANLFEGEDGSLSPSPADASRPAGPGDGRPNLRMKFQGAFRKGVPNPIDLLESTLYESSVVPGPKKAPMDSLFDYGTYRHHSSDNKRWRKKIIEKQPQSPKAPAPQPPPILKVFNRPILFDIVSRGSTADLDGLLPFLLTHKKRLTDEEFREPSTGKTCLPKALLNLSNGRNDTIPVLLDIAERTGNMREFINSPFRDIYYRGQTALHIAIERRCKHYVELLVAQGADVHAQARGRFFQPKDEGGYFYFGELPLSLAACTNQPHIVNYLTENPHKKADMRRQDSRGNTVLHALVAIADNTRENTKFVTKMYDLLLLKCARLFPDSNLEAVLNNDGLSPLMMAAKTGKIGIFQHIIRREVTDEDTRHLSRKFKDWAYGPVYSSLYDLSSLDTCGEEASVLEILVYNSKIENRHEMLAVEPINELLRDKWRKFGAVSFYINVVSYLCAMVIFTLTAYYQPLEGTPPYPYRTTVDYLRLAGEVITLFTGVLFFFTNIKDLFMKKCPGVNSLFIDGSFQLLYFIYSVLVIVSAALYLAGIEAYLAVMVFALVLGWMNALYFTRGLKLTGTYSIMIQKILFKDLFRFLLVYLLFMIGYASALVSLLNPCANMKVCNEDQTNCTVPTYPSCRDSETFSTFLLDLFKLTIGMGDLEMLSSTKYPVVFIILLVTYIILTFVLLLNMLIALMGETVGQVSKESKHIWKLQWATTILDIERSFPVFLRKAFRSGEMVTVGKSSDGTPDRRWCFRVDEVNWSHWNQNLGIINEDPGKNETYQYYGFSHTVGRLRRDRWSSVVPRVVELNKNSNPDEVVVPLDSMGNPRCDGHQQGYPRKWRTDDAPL

HEK293 [5] = assay: Activation of rat TRPV1 Cys616 mutant expressed in HEK cells assessed as increase in Ca2+ level from extracellular space at 0.1 to 1 mM; assay type: cell-based
HEK293 [6] = assay: Induction of rat TRPV1 Cys621 mutant S-nitrosylation expressed in HEK cells assessed as increase in Ca2+ level from extracellular space at 0.1 to 1 mM; assay type: cell-based
[7] = biological target: T1, Short transient receptor potential channel 5 (Homo sapiens); assay: Induction of S-nitrosylation of TRPC5 in HEK cells assessed as increase in Ca2+ level from extracellular space at 30 uM; assay type: cell-based; settings: HEK293
[8] = tested on: T2, Short transient receptor potential channel 5 (Homo sapiens), Q9UL62 [C558S]; assay: Decrease in TRPC5 C558S mutant S-nitrosylation in HEK cells assessed as inhibition of incorporation of DTNB-2Bio at 30 uM relative to control; assay type: cell-based; settings: HEK293
T2 sequence (whole entry): T1 sequence (whole entry) with C558S

[9] = biological target: Transient receptor potential cation channel subfamily V member 4 (Homo sapiens) (UniProt Q9HBA0); assay: Activation of TRPV4 in HEK cells assessed as increase in Ca2+ level from extracellular space at 10 uM; assay type: cell-based; settings: HEK293
[10] = biological target: T1, Short transient receptor potential channel 5 (Homo sapiens); assay: Activation of TRPC5 expressed in BAEC expressing dominant negative mutant of TRPC5 assessed as increase in Ca2+ level from extracellular space at 100 uM

CC(=O)N[C@@H](C(=O)O)C(C)(C)SN=O (racemic)
Activity [1]: Active
Activity [2]: inactive
Activity [3]: inactive
Activity [4]: Active
Activity (HEK293 [5]): inactive
Activity (HEK293 [6]): inactive

O=[N+]([O-])c1ccc(SSc2ccc([N+](=O)[O-])cn2)nc1
Activity [7]: Active
Activity [8]: Active
Activity [9]: Active
Activity [10]: inactive
